{
  "source": "patent US20250361210A1",
  "about": "“3,4-DIHYDROQUINOLIN-2(1H)-ONE COMPOUND” (Kissei Pharmaceutical Co., Ltd., priority 2022, published 2025)",
  "data": [
    {"molecular_target": "T1, human TSHR (Homo sapiens, UniProt P16473)", "T1 construct": "expressed in transfected cells", "T1 sequence (P16473 21-764)": "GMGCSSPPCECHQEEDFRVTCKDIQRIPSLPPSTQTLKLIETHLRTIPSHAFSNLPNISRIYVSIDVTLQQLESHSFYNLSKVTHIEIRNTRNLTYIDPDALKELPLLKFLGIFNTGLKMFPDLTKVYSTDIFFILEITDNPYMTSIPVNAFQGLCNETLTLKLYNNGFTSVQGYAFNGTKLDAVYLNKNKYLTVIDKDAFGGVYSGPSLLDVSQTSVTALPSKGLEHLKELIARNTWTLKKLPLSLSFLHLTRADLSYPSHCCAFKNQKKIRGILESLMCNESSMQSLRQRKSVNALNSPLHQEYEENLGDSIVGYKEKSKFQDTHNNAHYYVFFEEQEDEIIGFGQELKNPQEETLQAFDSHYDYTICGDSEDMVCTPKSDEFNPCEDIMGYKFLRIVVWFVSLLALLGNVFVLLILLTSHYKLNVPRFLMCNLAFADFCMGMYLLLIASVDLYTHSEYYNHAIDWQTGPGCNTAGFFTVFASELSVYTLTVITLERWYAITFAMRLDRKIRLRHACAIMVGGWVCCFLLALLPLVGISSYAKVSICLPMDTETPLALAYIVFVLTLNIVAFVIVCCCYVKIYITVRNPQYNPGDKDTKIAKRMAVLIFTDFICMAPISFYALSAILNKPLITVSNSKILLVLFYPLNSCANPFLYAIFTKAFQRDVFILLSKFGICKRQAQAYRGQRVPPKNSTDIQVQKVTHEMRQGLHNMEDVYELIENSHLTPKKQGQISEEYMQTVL", "experiment": "Antagonist activity using TSH-induced cAMP production in human TSHR-stably expressing CHO cells", "assay_type": "cell-based", "details": "human TSH 50 ng/mL", "protocol": "Measurement of Antagonist Activity Using TSH-Induced cAMP Production in Human TSHR-Stably Expressing CHO Cells as an Indicator\nThe human TSHR gene sequence (reference number NM_000369.2) was inserted into the multicloning site of pcDNA3.1(+). The constructed plasmid vector was introduced into CHO cells using the lipofection method to establish human TSHR-stably expressing CHO cells. The obtained cells were seeded at 5×10^4 cells/well in a 96-well poly-D-lysine-coated plate, and cultured in an F12 culture medium containing 10% FBS, 400 μg/mL of G418, 50 U/mL of penicillin and 50 μg/mL of streptomycin under conditions of 37° C. and 5% CO2 for 1 day. After the culture medium was removed, the cells were washed twice with 100 μL of an assay buffer solution (Hanks' Balanced Salt Solution containing 20 mM HEPES and 1 mM IBMX) per well. 30 μL of a test compound-containing assay buffer solution was added to the well and incubated at room temperature for 15 minutes. Then, 30 μL of an assay buffer solution containing human TSH (final concentration 50 ng/mL, R&D Systems, Inc.) was added, and incubated at 37° C. for 1 hour. The supernatant was removed, a Lysis and Detection Buffer 2 (Cisbio) was added, and the mixture was incubated at room temperature for 1 hour to prepare a cell lysate. According to the instruction manual of a cAMP Gs HiRange kit (Cisbio), the cell lysate, d2-labeled cAMP and anti-cAMP Europium Cryptate labeled antibodies (Cisbio) were reacted in a 384-well white microplate. Then, a fluorescence intensity ratio (measurement wavelength 665 nm/620 nm) was measured using a multi-plate reader (PHERAstar FSX, BMG LABTECH, Japan). The fluorescence intensity ratio of each sample was converted to a cAMP content using a standard curve. The cAMP content was converted as a percentage of the control value to calculate the cAMP production rate. The CAMP production rate was plotted against the test compound concentration using Prism (Graph Pad Software Inc.) to calculate the IC50 value. The IC50 of each test compound is shown in the above tables. In the tables, IC50<0.5 μM: A, 0.5 μM≤IC50<3.0 μM: B, 3.0 μM≤IC50<30 μM: C are shown.", "units": {"IC50": "nM"}, "values": [
      {"smiles": "CN1C(=O)C(CC(N)=O)Cc2cccc(Oc3ccccc3)c21", "note": "(centres unmarked) [Example 1, 2-(1-methyl-2-oxo-8-phenoxy-1,2,3,4-tetrahydroquinolin-3-yl)acetamide]", "IC50": "3000 to 30000"},
      {"smiles": "CN1C(=O)C(NC(N)=O)Cc2cccc(Oc3ccccc3)c21", "note": "(centres unmarked) [Example 2, (1-methyl-2-oxo-8-phenoxy-1,2,3,4-tetrahydroquinolin-3-yl)urea]", "IC50": "500 to 3000"},
      {"smiles": "CN1C(=O)C(NC(N)=O)Cc2cccc(Oc3ccccc3F)c21", "note": "(centres unmarked) [Example 3, (8-(2-fluorophenoxy)-1-methyl-2-oxo-1,2,3,4-tetrahydroquinolin-3-yl)urea]", "IC50": "500 to 3000"},
      {"smiles": "CN1C(=O)C(NC(N)=O)Cc2cccc(Oc3cccc(F)c3)c21", "note": "(centres unmarked) [Example 4, (8-(3-fluorophenoxy)-1-methyl-2-oxo-1,2,3,4-tetrahydroquinolin-3-yl)urea]", "IC50": "3000 to 30000"},
      {"smiles": "CN1C(=O)C(NC(N)=O)Cc2cccc(Oc3cccc(C(F)(F)F)c3)c21", "note": "(centres unmarked) [Example 5, (1-methyl-2-oxo-8-(3-(trifluoromethyl)phenoxy)-1,2,3,4-tetrahydroquinolin-3-yl)urea]", "IC50": "500 to 3000"},
      {"smiles": "CN1C(=O)C(NC(N)=O)Cc2cccc(Oc3cccc(Cl)c3)c21", "note": "(centres unmarked) [Example 6, (8-(3-chlorophenoxy)-1-methyl-2-oxo-1,2,3,4-tetrahydroquinolin-3-yl)urea]", "IC50": "500 to 3000"},
      {"smiles": "CN1C(=O)C(NC(N)=O)Cc2ccc(F)c(Oc3ccccc3)c21", "note": "(centres unmarked) [Example 7]", "IC50": "500 to 3000"},
      {"smiles": "CN1C(=O)C(NC(N)=O)Cc2ccc(Cl)c(Oc3ccccc3)c21", "note": "(centres unmarked) [Example 8]", "IC50": "500 to 3000"},
      {"smiles": "CN1C(=O)C(NC(N)=O)Cc2cccc(Oc3ncccc3C(F)(F)F)c21", "note": "(centres unmarked) [Example 9, (1-methyl-2-oxo-8-((3-(trifluoromethyl)pyridine-2-yl)oxy)-1,2,3,4-tetrahydroquinolin-3-yl)urea]", "IC50": "3000 to 30000"},
      {"smiles": "CN1C(=O)[C@H](NC(N)=O)Cc2cccc(Oc3ccccc3C(F)(F)F)c21", "note": "[Example 10, ((3R)-1-methyl-2-oxo-8-(2-(trifluoromethyl)phenoxy)-1,2,3,4-tetrahydroquinolin-3-yl)urea]", "IC50": "< 500"},
      {"smiles": "COc1ccccc1Oc1cccc2c1N(C)C(=O)[C@H](NC(N)=O)C2", "note": "[Example 11, ((3R)-8-(2-methoxyphenoxy)-1-methyl-2-oxo-1,2,3,4-tetrahydroquinolin-3-yl)urea]", "IC50": "3000 to 30000"},
      {"smiles": "CN1C(=O)[C@H](NC(N)=O)Cc2cccc(Oc3cccc(C#N)c3)c21", "note": "[Example 12, ((3R)-8-(3-cyanophenoxy)-1-methyl-2-oxo-1,2,3,4-tetrahydroquinolin-3-yl)urea]", "IC50": "3000 to 30000"},
      {"smiles": "COc1cccc(Oc2cccc3c2N(C)C(=O)[C@H](NC(N)=O)C3)c1", "note": "[Example 13]", "IC50": "500 to 3000"},
      {"smiles": "CCc1ccccc1Oc1cccc2c1N(C)C(=O)[C@H](NC(N)=O)C2", "note": "[Example 14]", "IC50": "500 to 3000"},
      {"smiles": "CCc1cccc(Oc2cccc3c2N(C)C(=O)[C@H](NC(N)=O)C3)c1", "note": "[Example 15]", "IC50": "500 to 3000"},
      {"smiles": "CN1C(=O)[C@H](NC(N)=O)Cc2cccc(Oc3cc(F)ccc3Cl)c21", "note": "[Example 16, ((3R)-8-(2-chloro-5-fluorophenoxy)-1-methyl-2-oxo-1,2,3,4-tetrahydroquinolin-3-yl)urea]", "IC50": "< 500"},
      {"smiles": "CC(C)c1ccccc1Oc1cccc2c1N(C)C(=O)[C@H](NC(N)=O)C2", "note": "[Example 17, ((3R)-1-methyl-2-oxo-8-(2-(propan-2-yl)phenoxy)-1,2,3,4-tetrahydroquinolin-3-yl)urea]", "IC50": "500 to 3000"},
      {"smiles": "CN1C(=O)[C@H](NC(N)=O)Cc2cccc(Oc3ccccc3C(F)F)c21", "note": "[Example 18, ((3R)-8-(2-(difluoromethyl)phenoxy)-1-methyl-2-oxo-1,2,3,4-tetrahydroquinolin-3-yl)urea]", "IC50": "< 500"},
      {"smiles": "CN1C(=O)[C@H](NC(N)=O)Cc2ccc(F)c(Oc3ccccc3Cl)c21", "note": "[Example 19, ((3R)-8-(2-chlorophenoxy)-7-fluoro-1-methyl-2-oxo-1,2,3,4-tetrahydroquinolin-3-yl)urea]", "IC50": "< 500"},
      {"smiles": "CN1C(=O)[C@H](NC(N)=O)Cc2cccc(Oc3ccc(F)cc3Cl)c21", "note": "[Example 20, ((3R)-8-(2-chloro-4-fluorophenoxy)-1-methyl-2-oxo-1,2,3,4-tetrahydroquinolin-3-yl)urea]", "IC50": "< 500"},
      {"smiles": "CN1C(=O)[C@H](NC(N)=O)Cc2cccc(Oc3cc(F)ccc3C(F)(F)F)c21", "note": "[Example 21, ((3R)-8-(5-fluoro-2-(trifluoromethyl)phenoxy)-1-methyl-2-oxo-1,2,3,4-tetrahydroquinolin-3-yl)urea]", "IC50": "< 500"},
      {"smiles": "CN1C(=O)[C@H](NC(N)=O)Cc2ccc(Cl)c(Oc3ccccc3Cl)c21", "note": "[Example 22, ((3R)-7-chloro-8-(2-chlorophenoxy)-1-methyl-2-oxo-1,2,3,4-tetrahydroquinolin-3-yl)urea]", "IC50": "< 500"},
      {"smiles": "CN1C(=O)[C@H](NC(N)=O)Cc2ccc(Cl)c(Oc3ccccc3F)c21", "note": "[Example 23, ((3R)-7-chloro-8-(2-fluorophenoxy)-1-methyl-2-oxo-1,2,3,4-tetrahydroquinolin-3-yl)urea]", "IC50": "< 500"},
      {"smiles": "CN1C(=O)[C@H](NC(N)=O)Cc2cccc(Oc3cccc(OC(F)F)c3)c21", "note": "[Example 24, ((3R)-8-(3-(difluoromethoxy)phenoxy)-1-methyl-2-oxo-1,2,3,4-tetrahydroquinolin-3-yl)urea]", "IC50": "500 to 3000"},
      {"smiles": "COc1cccc(Oc2c(Cl)ccc3c2N(C)C(=O)[C@H](NC(N)=O)C3)c1", "note": "[Example 25]", "IC50": "500 to 3000"},
      {"smiles": "CN1C(=O)[C@H](NC(N)=O)Cc2ccc(Cl)c(Oc3cccc(F)c3)c21", "note": "[Example 26, ((3R)-7-chloro-8-(3-fluorophenoxy)-1-methyl-2-oxo-1,2,3,4-tetrahydroquinolin-3-yl)urea]", "IC50": "< 500"},
      {"smiles": "CN1C(=O)[C@H](NC(N)=O)Cc2ccc(Cl)c(Oc3ccccc3C(F)F)c21", "note": "[Example 27, ((3R)-7-chloro-8-(2-(difluoromethyl)phenoxy)-1-methyl-2-oxo-1,2,3,4-tetrahydroquinolin-3-yl)urea]", "IC50": "< 500"},
      {"smiles": "CN1C(=O)[C@H](NC(N)=O)Cc2cccc(Oc3cc(F)ccc3C(F)F)c21", "note": "[Example 28]", "IC50": "< 500"},
      {"smiles": "CN1C(=O)[C@H](NC(N)=O)Cc2cccc(Oc3ccc(F)cc3C(F)F)c21", "note": "[Example 29]", "IC50": "< 500"},
      {"smiles": "COc1ccc(Cl)c(Oc2cccc3c2N(C)C(=O)[C@H](NC(N)=O)C3)c1", "note": "[Example 30, ((3R)-8-(2-chloro-5-methoxyphenoxy)-1-methyl-2-oxo-1,2,3,4-tetrahydroquinolin-3-yl)urea]", "IC50": "< 500"},
      {"smiles": "Cc1ccc2c(c1Oc1ccccc1Cl)N(C)C(=O)[C@H](NC(N)=O)C2", "note": "[Example 31, ((3R)-8-(2-chlorophenoxy)-1,7-dimethyl-2-oxo-1,2,3,4-tetrahydroquinolin-3-yl)urea]", "IC50": "< 500"},
      {"smiles": "CN1C(=O)[C@H](NC(N)=O)Cc2ccc(OCc3ccccc3)c(Oc3ccccc3Cl)c21", "note": "[Example 32]", "IC50": "3000 to 30000"},
      {"smiles": "CN1C(=O)[C@H](NC(N)=O)Cc2ccc(O)c(Oc3ccccc3Cl)c21", "note": "[Example 33, ((3R)-8-(2-chlorophenoxy)-7-hydroxy-1-methyl-2-oxo-1,2,3,4-tetrahydroquinolin-3-yl)urea]", "IC50": "500 to 3000"},
      {"smiles": "CCN1C(=O)[C@H](NC(N)=O)Cc2cccc(Oc3ccccc3Cl)c21", "note": "[Example 34, ((3R)-8-(2-chlorophenoxy)-1-ethyl-2-oxo-1,2,3,4-tetrahydroquinolin-3-yl)urea]", "IC50": "< 500"},
      {"smiles": "CN1C(=O)[C@H](NC(N)=O)Cc2cccc(Oc3cc(F)c(F)cc3Cl)c21", "note": "[Example 35, ((3R)-8-(2-chloro-4,5-difluorophenoxy)-1-methyl-2-oxo-1,2,3,4-tetrahydroquinolin-3-yl)urea]", "IC50": "< 500"},
      {"smiles": "CN1C(=O)[C@H](NC(N)=O)Cc2ccc(F)c(Oc3ccccc3C(F)(F)F)c21", "note": "[Example 36]", "IC50": "500 to 3000"},
      {"smiles": "CN1C(=O)[C@H](NC(N)=O)Cc2ccc(Cl)c(Oc3cc(F)ccc3Cl)c21", "note": "[Example 37, ((3R)-7-chloro-8-(2-chloro-5-fluorophenoxy)-1-methyl-2-oxo-1,2,3,4-tetrahydroquinolin-3-yl)urea]", "IC50": "< 500"},
      {"smiles": "Cc1ccc2c(c1Oc1ccccc1C(F)F)N(C)C(=O)[C@H](NC(N)=O)C2", "note": "[Example 38, ((3R)-8-(2-(difluoromethyl)phenoxy)-1,7-dimethyl-2-oxo-1,2,3,4-tetrahydroquinolin-3-yl)urea]", "IC50": "< 500"},
      {"smiles": "Cc1ccc2c(c1Oc1cc(F)ccc1Cl)N(C)C(=O)[C@H](NC(N)=O)C2", "note": "[Example 39, ((3R)-8-(2-chloro-5-fluorophenoxy)-1,7-dimethyl-2-oxo-1,2,3,4-tetrahydroquinolin-3-yl)urea]", "IC50": "< 500"},
      {"smiles": "CN1C(=O)[C@H](NC(N)=O)Cc2cccc(Oc3ccccc3Cl)c21", "note": "[Example 40, ((3R)-8-(2-chlorophenoxy)-1-methyl-2-oxo-1,2,3,4-tetrahydroquinolin-3-yl)urea]", "IC50": "< 500"},
      {"smiles": "CN1C(=O)[C@H](NC(N)=O)Cc2cccc(OC3CCCCC3)c21", "note": "[Example 41]", "IC50": "500 to 3000"}
    ]}
  ]
}
